In article PMC6917776, “Discovery of a chemical probe for PRDM9” (Nature Communications, 2019):
Where “and” joins values, the source holds several entries; their conditions need not be identical. Identical values can stand only once. Like-named read-outs stand apart in the source and are kept apart here.

Assays:
[1] = biological target: T1, PRDM9 (amino acids: 195–415) (Homo sapiens, UniProt Q9NQV7); test: PRDM9 methyltransferase activity assay (3H-SAM scintillation proximity assay); assay type: biochemical
T1 construct: PRDM9 (amino acids: 195–415)
T1 sequence (Q9NQV7 195-415): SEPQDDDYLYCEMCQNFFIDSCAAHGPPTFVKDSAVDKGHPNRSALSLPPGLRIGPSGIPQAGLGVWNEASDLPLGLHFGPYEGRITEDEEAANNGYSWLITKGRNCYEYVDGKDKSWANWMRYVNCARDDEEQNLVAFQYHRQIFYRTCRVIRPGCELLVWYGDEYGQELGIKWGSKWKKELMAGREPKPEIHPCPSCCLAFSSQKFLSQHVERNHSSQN
Description: Methyltransferase activity assays for PRDM9 (amino acids: 195–415) were performed by monitoring the incorporation of tritium-labeled methyl group from ^3H-SAM to H3 (1–25) peptide using scintillation proximity assay (SPA). The enzymatic reactions were performed at 23 °C with 30 min incubation in 20 mM Tris-HCl (pH 7.5), 5 mM DTT, 0.01% Triton X-100 and 1% DMSO containing 71 μM of SAM (5 μM of ^3H-SAM), 4 μM of biotinylated H3 (1–25) peptide and 5 nM of PRDM9. For PRDM7, reactions were performed at 23 °C with 90 min incubation in 20 mM BTP pH 9.0, 5 mM DTT, 0.01% Triton X-100 and 1% DMSO containing 900 μM of SAM (5 μM of ^3H-SAM), 4 μM of biotinylated H3 (1–25) peptide and 100 nM of enzyme. […] To stop the reactions, 10 μL of 7.5 M guanidine hydrochloride was added to 10 μL of reaction mixture, followed by 60 μL of buffer (20 mM Tris, pH 8.0), mixed, and transferred to a 384-well streptavidin coated Flash-plate. After mixing, the mixtures in Flash-plate were incubated for 2 h, and the CPM counts were measured using TopCount plate reader. All enzymatic reactions were performed in triplicate, and IC50 values were determined by fitting the data to Four Parameter Logistic equation using the GraphPad Prism software.

PRDM9 = PRDM9 (Homo sapiens, UniProt Q9NQV7); test: PRDM9 cellular assay: H3K4me3 of exogenous H3-GFP in HEK293T cells (western blot); assay type: cell-based
PRDM9, sequence (Q9NQV7 whole entry): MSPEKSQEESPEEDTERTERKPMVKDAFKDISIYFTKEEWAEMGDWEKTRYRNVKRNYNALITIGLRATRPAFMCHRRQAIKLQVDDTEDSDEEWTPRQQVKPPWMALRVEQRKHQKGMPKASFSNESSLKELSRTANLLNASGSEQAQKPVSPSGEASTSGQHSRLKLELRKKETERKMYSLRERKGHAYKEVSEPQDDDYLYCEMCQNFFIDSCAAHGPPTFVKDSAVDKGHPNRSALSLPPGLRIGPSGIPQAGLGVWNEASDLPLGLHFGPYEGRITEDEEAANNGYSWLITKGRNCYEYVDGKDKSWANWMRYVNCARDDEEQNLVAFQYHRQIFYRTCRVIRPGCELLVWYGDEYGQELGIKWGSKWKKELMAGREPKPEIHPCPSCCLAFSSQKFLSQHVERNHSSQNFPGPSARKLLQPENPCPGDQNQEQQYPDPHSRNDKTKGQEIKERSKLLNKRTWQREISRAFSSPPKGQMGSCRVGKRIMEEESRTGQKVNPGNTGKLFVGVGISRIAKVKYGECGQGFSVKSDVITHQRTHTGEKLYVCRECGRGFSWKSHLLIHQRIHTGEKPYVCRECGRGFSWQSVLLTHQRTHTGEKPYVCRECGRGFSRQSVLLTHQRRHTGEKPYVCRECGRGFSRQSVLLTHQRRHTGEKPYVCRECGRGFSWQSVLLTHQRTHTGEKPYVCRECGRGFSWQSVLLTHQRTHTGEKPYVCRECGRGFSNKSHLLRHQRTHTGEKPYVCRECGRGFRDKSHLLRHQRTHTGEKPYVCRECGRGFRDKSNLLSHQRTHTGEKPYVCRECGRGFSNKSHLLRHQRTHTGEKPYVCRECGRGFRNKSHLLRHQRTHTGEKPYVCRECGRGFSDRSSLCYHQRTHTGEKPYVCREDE
Description: HEK293T cells were co-transfected with H3-GFP and PRDM9-FLAG and treated with compounds at indicated concentrations for 20 h. Mut denotes PRDM9 catalytic mutant (Y357S). […] Cells were treated with compounds for 1 day. Cell number was measured using IncuCyte™ ZOOM live cell imaging device. The results are mean ± sd, n = 3. Source data are provided as a Source Data file.
HEK293T (kind gift from Sam Benchimol, York University), or MCF7 (ATCC® HTB-22™), cells were plated (12 well plates) and next day co-transfected with 0.1 (HEK293T) or 0.2 (MCF7) µg of GFP-tagged histone H3 and with 0.1 (HEK293T) or 0.2 (MCF7) µg of Flag-tagged PRDM9/PRDM9 catalytic mutant (Y357S) and 0.8 or 0.6 µg of empty vector using JetPRIME® transfection reagent, following manufacturer instructions. After 4 h media was removed and cells were treated with compounds for 20 h. Next day, cells were lysed in lysis buffer (20 mM Tris-HCl pH 8, 150 mM NaCl, 1 mM EDTA, 10 mM MgCl2, 0.5% TritonX-100, 12.5 U mL^−1 benzonase (Sigma), complete EDTA-free protease inhibitor cocktail (Roche)). After 2 min incubation at RT, SDS was added to final 1% concentration. Cell lysates were analyzed in western blot for GFP and H3K4me3 levels. All cell lines were mycoplasma negative, as determined by MycoAlert™ Mycoplasma Detection Kit (Lonza).
Total cell lysates were resolved in 4–12% Bis-Tris Protein Gels (Invitrogen) and transferred in for 1.5 h (80 V) onto PVDF membrane (Millipore) in Tris-Glycine transfer buffer containing 20% MeOH and 0.05% SDS. Blots were blocked for 1 h in blocking buffer (5% milk in PBS) and incubated with primary antibodies anti-GFP (1:3000, Clontech # 632381), anti-H3K4me3 (1:1000, Millipore, #04-745), anti-histone H3 (1:2000, #ab10799, Abcam), anti-Flag (1:5000, #F4799, Sigma) in blocking buffer (5% BSA in 0.1% Tween 20 PBS) overnight at 4 °C. After five washes with 0.1% Tween 20 PBS the blots were incubated with goat-anti rabbit (IR800) and donkey anti-mouse (IR 680) antibodies (1:5000) in Odyssey Blocking Buffer (LiCor) for 1 h at RT and washed five times with 0.1% Tween 20 PBS. The signal was read on an Odyssey scanner (LiCor) at 800 nm and 700 nm and analyzed with Image Studio Ver.5.2 software.

## COc1cc(OC)cc(-c2noc(N3CCN(C)C4(CCN(c5ccnc(C)c5)CC4)C3)n2)c1 [MRK-740]
[1]; 0.00305176 µM compound, 0.00305176 µM
  PRDM9-Activity %, single experiments: 94.4267% and 95.25% and 97.1828% and 103.784% and 103.017%
[1]; 0.00305176 µM compound, n=6, read-out: PRDM9-Activity %, Average
  activity at 0.00305176 µM: 97.6%
[1]; 0.00305176 µM compound, read-out: PRDM9-Activity %, single experiments
  activity at 0.00305176 µM: 91.9%
[1]; 0.00610352 µM compound, 0.00610352 µM
  PRDM9-Activity %, single experiments: 85.0663% and 85.348% and 95.7626% and 97.3747% and 91.3487%
[1]; 0.00610352 µM compound, n=6 MRK-740, n=3 MRK-740-NC, read-out: PRDM9-Activity %, Average
  activity at 0.00610352 µM: 90%
[1]; 0.00610352 µM compound, read-out: PRDM9-Activity %, single experiments
  activity at 0.00610352 µM: 84.8%
[1]; 0.012207 µM compound, 0.012207 µM
  PRDM9-Activity %, single experiments: 78.4578% and 80.6028% and 86.1288% and 97.1828% and 87.357%
[1]; 0.012207 µM compound, n=6 MRK-740, n=3 MRK-740-NC, read-out: PRDM9-Activity %, Average
  activity at 0.012207 µM: 84.8%
[1]; 0.012207 µM compound, read-out: PRDM9-Activity %, single experiments
  activity at 0.012207 µM: 79.3%
[1]; 0.0244141 µM compound, 0.0244141 µM
  PRDM9-Activity %, single experiments: 75.966% and 79.6061% and 75.3435% and 72.6952% and 77.5697%
[1]; 0.0244141 µM compound, n=6 MRK-740, n=3 MRK-740-NC, read-out: PRDM9-Activity %, Average
  activity at 0.0244141 µM: 75.8%
[1]; 0.0244141 µM compound, read-out: PRDM9-Activity %, single experiments
  activity at 0.0244141 µM: 73.4%
[1]; 0.0488281 µM compound, 0.0488281 µM
  PRDM9-Activity %, single experiments: 59.9538% and 62.5322% and 63.7138% and 61.8331% and 62.9462%
[1]; 0.0488281 µM compound, n=6 MRK-740, n=3 MRK-740-NC, read-out: PRDM9-Activity %, Average
  activity at 0.0488281 µM: 62.6%
[1]; 0.0488281 µM compound, read-out: PRDM9-Activity %, single experiments
  activity at 0.0488281 µM: 64.9%
[1]; 0.0976562 µM compound, 0.0976562 µM
  PRDM9-Activity %, single experiments: 47.0617% and 46.4983% and 51.163% and 50.5105% and 50.3953%
[1]; 0.0976562 µM compound, n=6 MRK-740, n=3 MRK-740-NC, read-out: PRDM9-Activity %, Average
  activity at 0.0976562 µM: 49%
[1]; 0.0976562 µM compound, read-out: PRDM9-Activity %, single experiments
  activity at 0.0976562 µM: 48.6%
[1]; 0.195312 µM compound, 0.195312 µM
  PRDM9-Activity %, single experiments: 35.2529% and 35.7729% and 39.7252% and 37.4223% and 38.9192%
[1]; 0.195312 µM compound, n=6 MRK-740, n=3 MRK-740-NC, read-out: PRDM9-Activity %, Average
  activity at 0.195312 µM: 36.7%
[1]; 0.195312 µM compound, read-out: PRDM9-Activity %, single experiments
  activity at 0.195312 µM: 33%
[1]; 0.390625 µM compound, 0.390625 µM
  PRDM9-Activity %, single experiments: 22.6425% and 27.2793% and 26.6754% and 26.8289% and 30.4368%
[1]; 0.390625 µM compound, n=6 MRK-740, n=3 MRK-740-NC, read-out: PRDM9-Activity %, Average
  activity at 0.390625 µM: 26.6%
[1]; 0.390625 µM compound, read-out: PRDM9-Activity %, single experiments
  activity at 0.390625 µM: 25.4%
[1]; 0.78125 µM compound, 0.78125 µM
  PRDM9-Activity %, single experiments: 15.1455% and 15.3839% and 20.1505% and 16.3507% and 20.304%
[1]; 0.78125 µM compound, n=6 MRK-740, n=3 MRK-740-NC, read-out: PRDM9-Activity %, Average
  activity at 0.78125 µM: 17.5%
[1]; 0.78125 µM compound, read-out: PRDM9-Activity %, single experiments
  activity at 0.78125 µM: 17.8%
[1]; 1.5625 µM compound, 1.5625 µM
  PRDM9-Activity %, single experiments: 9.274% and 10.0537% and 12.7044% and 15.0841% and 15.1608%
[1]; 1.5625 µM compound, n=6 MRK-740, n=3 MRK-740-NC, read-out: PRDM9-Activity %, Average
  activity at 1.5625 µM: 12%
[1]; 1.5625 µM compound, read-out: PRDM9-Activity %, single experiments
  activity at 1.5625 µM: 9.56%
[1]; 3.125 µM compound, 3.125 µM
  PRDM9-Activity %, single experiments: 7.757% and 8.32% and 10.555% and 9.672% and 9.096%
[1]; 3.125 µM compound, n=6 MRK-740, n=3 MRK-740-NC, read-out: PRDM9-Activity %, Average
  activity at 3.125 µM: 8.8%
[1]; 3.125 µM compound, read-out: PRDM9-Activity %, single experiments
  activity at 3.125 µM: 7.39%
[1]; 6.25 µM compound, 6.25 µM
  PRDM9-Activity %, single experiments: 4.5935% and 6.024% and 7.753% and 9.173% and 6.448%
[1]; 6.25 µM compound, n=6 MRK-740, n=3 MRK-740-NC, read-out: PRDM9-Activity %, Average
  activity at 6.25 µM: 6.57%
[1]; 6.25 µM compound, read-out: PRDM9-Activity %, single experiments
  activity at 6.25 µM: 5.42%
[1]; 12.5 µM compound, 12.5 µM
  PRDM9-Activity %, single experiments: 3.185% and 3.8568% and 5.834% and 4.491% and 4.606%
[1]; 12.5 µM compound, n=6 MRK-740, n=3 MRK-740-NC, read-out: PRDM9-Activity %, Average
  activity at 12.5 µM: 4.37%
[1]; 12.5 µM compound, read-out: PRDM9-Activity %, single experiments
  activity at 12.5 µM: 4.27%
[1]; 25 µM compound, 25 µM
  PRDM9-Activity %, single experiments: 2.7301% and 2.167% and 2.752% and 4.337% and 5.373% and 4.529%
[1]; 25 µM compound, n=6 MRK-740, n=3 MRK-740-NC, read-out: PRDM9-Activity %, Average
  activity at 25 µM: 3.65%
[1]; 50 µM compound, 50 µM
  PRDM9-Activity %, single experiments: 2.405% and 1.7984% and 3.488% and 4.913% and 5.45% and 4.529%
[1]; 50 µM compound, n=6 MRK-740, n=3 MRK-740-NC, read-out: PRDM9-Activity %, Average
  activity at 50 µM: 3.76%
[1]; PRDM9, 1µM compound, Exp1, Exp2, 1 µM
  Activity %: 11%
[1]; PRDM9, 1µM compound, Exp1, Exp2, read-out: Activity %
  activity at 1 µM: 10%
[1]; PRDM9, 10µM compound, Exp1, Exp2, 10 µM
  Activity %: 2.5%
[1]; PRDM9, 10µM compound, Exp1, Exp2, read-out: Activity %
  activity at 10 µM: 3%
[1]; biotinylated H3 (1–25) peptide, balanced conditions, mean ± standard deviation
  IC50: 80 ± 16 nM
PRDM9; H3-GFP and PRDM9-FLAG co-transfected, 20 h of treatment, read-out: IC50, PRDM9-dependent trimethylation of ectopic H3K4
  IC50: 800 ± 100 nM
PRDM9; HEK-293T, 20 h, 0.123455 µM, Figure 6b, replicates, read-out: H3K4me3/GFP - western blot, % control
  remaining activity at 0.123455 µM: 109%
PRDM9; HEK-293T, 20 h, 0.370374 µM, Figure 6b, replicates, read-out: H3K4me3/GFP - western blot, % control
  remaining activity at 0.370374 µM: 89.7%
PRDM9; HEK-293T, 20 h, 1.11111 µM, Figure 6b, replicates, read-out: H3K4me3/GFP - western blot, % control
  remaining activity at 1.11111 µM: 25.7%
PRDM9; HEK-293T, 20 h, 3.33334 µM, Figure 6b, replicates, read-out: H3K4me3/GFP - western blot, % control
  remaining activity at 3.33334 µM: 11.4%
PRDM9; HEK-293T, 20 h, 30 µM, Figure 6b, replicates, read-out: H3K4me3/GFP - western blot, % control
  remaining activity at 30 µM: 3.21%
PRDM9; HEK-293T, read-out: IC90, PRDM9-dependent H3K4 trimethylation in cells
  IC90: 3000 nM
